ChEMBL document CHEMBL3886577, “N-((6-amino-pyridin-3-yl)methyl)-heteroaryl-carboxamides” (2016)

Tests used:
[1] = (§1) In-vitro Plasma Kallikrein Inhibition: Enzymatic reactions were conducted in ⿿assay buffer⿿, comprising 50 mM Hepes/NaOH at pH 7.8, 150 mM NaCl, 1 mM EDTA and 0.05% (w/v) CHAPS. For the determination of IC50 values, the assays were performed at room temperature in 384-well plates with a total assay volume of 25.25 ul per well. The test compound was dissolved in 90% (v/v) DMSO/water. For the assays, 250 nL of the 90% (v/v) DMSO/water solution or compound solution were added per well, followed by the addition of 12.5 ul protease solution (protease in assay buffer). The final assay concentration of the human plasma kallikrein was nominally 25 pM, the 11 compound concentrations in the dilution series were in the range form 1 nM to 100 uM. After 1 hour of pre-incubation at room temperature, the reactions were started by the addition of 12.5 ul substrate solution (in assay buffer, final assay concentration was 0.5 uM). After the addition of the substrate solution, the final DMSO concentration in the assay was 0.9% (v/v).
Plasma kallikrein = Plasma kallikrein (Homo sapiens, UniProt P03952); assay: as §1; format: cell-free
Sequence of Plasma kallikrein (P03952 20-390 limits assumed): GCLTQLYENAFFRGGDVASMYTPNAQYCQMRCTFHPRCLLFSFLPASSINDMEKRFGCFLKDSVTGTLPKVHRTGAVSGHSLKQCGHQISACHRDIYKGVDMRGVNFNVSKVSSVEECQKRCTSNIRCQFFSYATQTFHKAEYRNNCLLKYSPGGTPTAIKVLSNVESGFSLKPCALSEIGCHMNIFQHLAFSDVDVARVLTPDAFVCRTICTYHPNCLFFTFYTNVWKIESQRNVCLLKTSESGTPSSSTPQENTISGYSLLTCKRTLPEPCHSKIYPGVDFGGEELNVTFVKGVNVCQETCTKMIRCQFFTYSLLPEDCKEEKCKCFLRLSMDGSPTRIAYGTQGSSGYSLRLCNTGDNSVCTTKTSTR
Sequence of Plasma kallikrein (P03952 391-638 limits assumed): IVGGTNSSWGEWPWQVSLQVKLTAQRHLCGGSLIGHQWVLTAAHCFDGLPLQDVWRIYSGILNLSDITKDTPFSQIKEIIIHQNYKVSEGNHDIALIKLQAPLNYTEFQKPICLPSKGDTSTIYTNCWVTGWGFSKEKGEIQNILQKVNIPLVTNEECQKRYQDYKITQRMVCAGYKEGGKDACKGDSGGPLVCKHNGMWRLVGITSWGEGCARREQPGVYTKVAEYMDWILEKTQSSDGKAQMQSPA

IC50 [1] [nM] | SMILES | IC50 (Plasma kallikrein) [nM]
24 | Cc1nc(N)cc(OCC(=O)C(C)(C)C)c1CNC(=O)c1cn(Cc2ccccc2)nn1 | 
 | Cc1cc(N)nc(C)c1CNC(=O)c1nnn(Cc2ccccc2)c1C | 52100
 | COc1cc(Cn2cc(C(=O)NCc3c(C)cc(N)nc3C)cn2)ccc1Cn1cccn1 | 0.0912
 | COc1ccc2cc(Cn3cc(C(=O)NCc4c(C)cc(N)nc4C)cn3)ccc2c1 | 5
 | Cc1cc(N)nc(C)c1CNC(=O)c1cn(Cc2ccc(-c3ccccc3)cc2)nn1 | 30
 | Cc1cc(N)nc(C)c1CNC(=O)c1nc(Cc2ccccc2)n(C)n1 | 7670
 | Cc1cc(N)nc(C)c1CNC(=O)c1cc(C)n(Cc2ccco2)c1C | 739
 | Cc1cc(N)nc(C)c1CNC(=O)c1cnn(Cc2ccc(CO)cc2)c1 | 150
 | CNC(=O)COc1cc(N)nc(C)c1CNC(=O)c1cnn(Cc2ccccc2)c1 | 70
